Assay results from patent US11370774B2, “Substituted benzofuran, benzopyrrole, benzothiophene, and structurally related complement inhibitors” (BioCryst Pharmaceuticals, Inc., priority 2018, dated 2022).

Biological target: Factor D (Homo sapiens (Human), UniProt P00746)
Assay: Factor D esterolytic assay (Z-Lys-SBzl substrate, DTNB, 405 nm)
Assay type: biochemical
Settings: Z-Lys-SBzl 1.29 mM, pH 7.5, 10% DMSO, tested a minimum of three times, read-out: Measured Ki (IC50) Value for Compounds: IC50
Method in brief: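 Thioester hydrolysis (Z-Lys-SBzl, 1.29 mM) by human Factor D ([…]) detected through DTNB color at 405 nm over 600 sec, minus 690 nm background. Buffer: 100 mM HEPES pH 7.5, 500 mM NaCl, 10% DMSO; optional room-temperature preincubation before substrate. IC50 derived from percent rate inhibition; at least three runs.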

Chain of Factor D (P00746 26-253): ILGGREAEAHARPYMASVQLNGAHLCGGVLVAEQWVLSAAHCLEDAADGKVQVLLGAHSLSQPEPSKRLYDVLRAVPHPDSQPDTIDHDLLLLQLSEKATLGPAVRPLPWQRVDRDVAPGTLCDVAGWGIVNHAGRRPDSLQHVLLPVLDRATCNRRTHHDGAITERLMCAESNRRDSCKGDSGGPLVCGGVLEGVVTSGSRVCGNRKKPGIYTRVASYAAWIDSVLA

NCc1cccc(-c2cc(COc3c(F)cccc3CC(=O)O)cc3ccoc23)c1F [Compound 502c, 2-(2-((7-(3-(aminomethyl)-2-fluorophenyl)benzofuran-5-yl)methoxy)-3-fluorophenyl)acetic acid] and COc1cccc(CC(=O)O)c1OCc1cc(-c2cccc(CN)c2F)c2occc2c1 [Compound 508b, 2-(2-((7-(3-(aminomethyl)-2-fluorophenyl)benzofuran-5-yl)methoxy)-3-methoxyphenyl)acetic acid] cannot be ordered by IC50: less than 1000 nM for the first, less than 1000 nM for the second.

NCc1cc(-c2cc(COc3cc(F)ccc3CC(=O)O)c(F)c3ccoc23)ccn1 [Compound 503c, 2-(2-((7-(2-(aminomethyl)pyridin-4-yl)-4-fluorobenzofuran-5-yl)methoxy)-4-fluorophenyl)acetic acid] and NCc1nccc(-c2cc(COc3cc(F)ccc3CC(=O)O)c(F)c3ccoc23)c1F [Compound 509d, 2-(2-((7-(2-(aminomethyl)-3-fluoropyridin-4-yl)-4-fluorobenzofuran-5-yl)methoxy)-4-fluorophenyl)acetic acid] cannot be ordered by IC50: less than 1000 nM for the first, less than 1000 nM for the second.

NCc1cc(-c2cc(COc3c(F)cccc3CC(=O)O)cc3ccoc23)ccn1 [Compound 504c, 2-(2-((7-(2-(aminomethyl)pyridin-4-yl)benzofuran-5-yl)methoxy)-3-fluorophenyl)acetic acid] and COc1cccc(CC(=O)O)c1OCc1cc(-c2ccnc(CN)c2)c2occc2c1 [Compound 512d, 2-(2-((7-(2-(aminomethyl)pyridin-4-yl)benzofuran-5-yl)methoxy)-3-methoxyphenyl)acetic acid] cannot be ordered by IC50: less than 1000 nM for the first, less than 1000 nM for the second.

CC(=O)c1ccc(CC(=O)O)c(OCc2cc(-c3ccnc(CN)c3F)c3occc3c2)c1 [Compound 505d, 2-(4-acetyl-2-((7-(2-(aminomethyl)-3-fluoropyridin-4-yl)benzofuran-5-yl)methoxy)phenyl)acetic acid] and CC(=O)c1ccc(CC(=O)O)c(OCc2cc(-c3ccnc(CN)c3)c3occc3c2)c1 [Compound 511e, 2-(4-acetyl-2-((7-(2-(aminomethyl)pyridin-4-yl)benzofuran-5-yl)methoxy)phenyl)acetic acid] cannot be ordered by IC50: less than 1000 nM for the first, less than 1000 nM for the second.

CC(=O)c1ccc(CC(=O)O)c(OCc2cc(-c3cccc(CN)c3)c3occ(C(F)(F)F)c3c2)c1 [Compound 506e, 2-(4-acetyl-2-((7-(3-(aminomethyl)phenyl)-3-(trifluoromethyl)benzofuran-5-yl)methoxy)phenyl)acetic acid] and NCc1cccc(-c2cc(COc3cc(F)ccc3CC(=O)O)cc3cc(F)oc23)c1 [Compound 520c, 2-(2-((7-(3-(aminomethyl)phenyl)-2-fluorobenzofuran-5-yl)methoxy)-4-fluorophenyl)acetic acid] cannot be ordered by IC50: less than 1000 nM for the first, less than 1000 nM for the second.

Compared with NCc1cccc(-c2cc(NC(=O)[C@@H]3CCCN3C(=O)NCc3cccc(Cl)c3F)cc3ccoc23)c1 [Compound 507f, (S)—N2-(7-(3-(aminomethyl)phenyl)benzofuran-5-yl)-N1-(3-chloro-2-fluorobenzyl)pyrrolidine-1,2-dicarboxamide], NCc1nccc(-c2cc(COc3c(F)cccc3CC(=O)O)cc3ccoc23)c1F [Compound 510d, 2-(2-((7-(2-(aminomethyl)-3-fluoropyridin-4-yl)benzofuran-5-yl)methoxy)-3-fluorophenyl)acetic acid] is lower in IC50: 1000 to 10000 nM for the first, less than 1000 nM for the second.

CC(C)n1ccc2c(-c3ccnc(CN)c3F)cc(COc3ccc(F)cc3CC(=O)O)cc21 [Compound 513c, 2-(2-((4-(2-(aminomethyl)-3-fluoropyridin-4-yl)-1-isopropyl-1H-indol-6-yl)methoxy)-5-fluorophenyl)acetic acid] and NCc1nccc(-c2cc(COc3ccccc3CC(=O)O)cc3c2ccn3C(F)(F)F)c1F [Compound 533c, 2-(2-((4-(2-(aminomethyl)-3-fluoropyridin-4-yl)-1-(trifluoromethyl)-1H-indol-6-yl)methoxy)phenyl)acetic acid] cannot be ordered by IC50: less than 1000 nM for the first, less than 1000 nM for the second.

COCc1cc2cc(COc3cc(F)ccc3CC(=O)O)cc(-c3ccnc(CN)c3F)c2o1 [Compound 514d, 2-(2-((7-(2-(aminomethyl)-3-fluoropyridin-4-yl)-2-(methoxymethyl)benzofuran-5-yl)methoxy)-4-fluorophenyl)acetic acid] and COCc1cc2cc(COc3ccc(F)cc3CC(=O)O)cc(-c3ccnc(CN)c3F)c2o1 [Compound 528d] cannot be ordered by IC50: less than 1000 nM for the first, less than 1000 nM for the second.

COCc1cc2cc(COc3cc(F)ccc3CC(=O)O)cc(-c3ccnc(CN)c3)c2o1 [Compound 515c, 2-(2-((7-(2-(aminomethyl)pyridin-4-yl)-2-(methoxymethyl)benzofuran-5-yl)methoxy)-4-fluorophenyl)acetic acid] and COCc1cc2cc(COc3ccc(F)cc3CC(=O)O)cc(-c3ccnc(CN)c3)c2o1 [Compound 529b, 2-(2-((7-(2-(aminomethyl)pyridin-4-yl)-2-(methoxymethyl)benzofuran-5-yl)methoxy)-5-fluorophenyl)acetic acid] cannot be ordered by IC50: less than 1000 nM for the first, less than 1000 nM for the second.

NCc1cccc(-c2c(F)c(COc3ccccc3CC(=O)O)cc3ccoc23)c1F [Compound 516c, 2-(2-((7-(3-(aminomethyl)-2-fluorophenyl)-6-fluorobenzofuran-5-yl)methoxy)phenyl)acetic acid] and NCc1nccc(-c2c(F)c(COc3ccccc3CC(=O)O)cc3ccoc23)c1F [Compound 531c, 2-(2-((7-(2-(aminomethyl)-3-fluoropyridin-4-yl)-6-fluorobenzofuran-5-yl)methoxy)phenyl)acetic acid] cannot be ordered by IC50: less than 1000 nM for the first, less than 1000 nM for the second.

NCc1cccc(-c2cc(COc3ccccc3CC(=O)O)cc3c2ccn3C(F)(F)F)c1 [Compound 517d, 2-(2-((4-(3-(aminomethyl)phenyl)-1-(trifluoromethyl)-1H-indol-6-yl)methoxy)phenyl)acetic acid] and NCc1cc(-c2cc(COc3ccccc3CC(=O)O)cc3c2ccn3C(F)(F)F)ccn1 [Compound 532d, 2-(2-((4-(2-(aminomethyl)pyridin-4-yl)-1-(trifluoromethyl)-1H-indol-6-yl)methoxy)phenyl)acetic acid] cannot be ordered by IC50: less than 1000 nM for the first, less than 1000 nM for the second.

NCc1cccc(-c2cc(COc3ccccc3CC(=O)O)cc3c2ccn3C(F)(F)F)c1F [Compound 518b, 2-(2-((4-(3-(aminomethyl)-2-fluorophenyl)-1-(trifluoromethyl)-1H-indol-6-yl)methoxy)phenyl)acetic acid] and NCc1cccc(-c2cc(COc3cc(F)ccc3CC(=O)O)cc3cc(F)oc23)c1F [Compound 521b, 2-(2-((7-(3-(aminomethyl)-2-fluorophenyl)-2-fluorobenzofuran-5-yl)methoxy)-4-fluorophenyl)acetic acid] cannot be ordered by IC50: less than 1000 nM for the first, less than 1000 nM for the second.

NCc1cc(-c2c(F)c(COc3ccccc3CC(=O)O)cc3ccoc23)ccn1 [Compound 519c, 2-(2-((7-(2-(aminomethyl)pyridin-4-yl)-6-fluorobenzofuran-5-yl)methoxy)phenyl)acetic acid] and NCc1cc(-c2cc(COc3cc(F)ccc3CC(=O)O)cc3cc(F)oc23)ccn1 [Compound 523b, 2-(2-((7-(2-(aminomethyl)pyridin-4-yl)-2-fluorobenzofuran-5-yl)methoxy)-4-fluorophenyl)acetic acid] cannot be ordered by IC50: less than 1000 nM for the first, less than 1000 nM for the second.

NCc1nccc(-c2cc(COc3cc(F)ccc3CC(=O)O)cc3cc(F)oc23)c1F [Compound 522c, 2-(2-((7-(2-(aminomethyl)-3-fluoropyridin-4-yl)-2-fluorobenzofuran-5-yl)methoxy)-4-fluorophenyl)acetic acid] and Cc1ccc(CC(=O)O)c(OCc2cc(-c3ccnc(CN)c3F)c3oc(F)cc3c2)c1 [Compound 525c, 2-(2-((7-(2-(aminomethyl)-3-fluoropyridin-4-yl)-2-fluorobenzofuran-5-yl)methoxy)-4-methylphenyl)acetic acid] cannot be ordered by IC50: less than 1000 nM for the first, less than 1000 nM for the second.

Cc1ccc(CC(=O)O)c(OCc2cc(-c3cccc(CN)c3F)c3oc(F)cc3c2)c1 [Compound 524b, 2-(2-((7-(3-(aminomethyl)-2-fluorophenyl)-2-fluorobenzofuran-5-yl)methoxy)-4-methylphenyl)acetic acid] and Cc1ccc(CC(=O)O)c(OCc2cc(-c3ccnc(CN)c3)c3oc(F)cc3c2)c1 [Compound 526b, 2-(2-((7-(2-(aminomethyl)pyridin-4-yl)-2-fluorobenzofuran-5-yl)methoxy)-4-methylphenyl)acetic acid] cannot be ordered by IC50: less than 1000 nM for the first, less than 1000 nM for the second.

COc1cccc(CC(=O)O)c1OCc1cc(-c2ccnc(CN)c2F)c2occc2c1 [Compound 527b, 2-(2-((7-(2-(aminomethyl)-3-fluoropyridin-4-yl)benzofuran-5-yl)methoxy)-3-methoxyphenyl)acetic acid] and COCc1cc2cc(COc3cc(C(C)=O)ccc3CC(=O)O)cc(-c3ccnc(CN)c3F)c2o1 [Compound 530c, 2-(4-acetyl-2-((7-(2-(aminomethyl)-3-fluoropyridin-4-yl)-2-(methoxymethyl)benzofuran-5-yl)methoxy)phenyl)acetic acid] cannot be ordered by IC50: less than 1000 nM for the first, less than 1000 nM for the second.
